pIC50: −log10 of the molar value. Where a SMILES comes first, the peptide text is derived from it. [ ]: non-standard residue; d: D form. The star is where a group is joined. ξ: configuration not given here. Camptothecin(20R,20-O) = CC[C@]1(O*)C(=O)OCc2c1cc1n(c2=O)Cc2cc3ccccc3nc2-1; X5 = C[C@H]1O[C@@H](Oc2ccc(NC(=S)*)cc2)[C@@H](O)[C@@H](OCC(N)=O)[C@H]1O; X9 = C[C@H]1O[C@@H](Oc2ccc(NC(=S)*)cc2)[C@@H](O)[C@@H](OCCO)[C@H]1O; X8 = C[C@H]1OC(Oc2ccc(NC(=S)*)cc2)[C@@H](O)[C@@H](OCC(=O)O)[C@H]1O; X4 = CO[C@H]1[C@H](O)[C@@H](Oc2ccc(NC(=S)*)cc2)O[C@@H](C)[C@H]1O; X6 = CO[C@@H]1[C@H](O)[C@H](Oc2ccc(NC(=S)*)cc2)O[C@H](C)[C@@H]1O; X1 = CO[C@H]1[C@@H](O)[C@@H](C)OC(Oc2ccc(NC(=S)*)cc2)[C@H]1O; X7 = OC[C@H]1OC(Oc2ccc(NC(=S)*)cc2)[C@@H](O)[C@@H](O)[C@H]1O; X2 = CC[C@@]1(O*)C(=O)OCc2c1cc1n(c2=O)Cc2cc3ccccc3nc2-1; Ile(3ξ) = CCC(C)[C@H](N)C(=O)O; ξV = CC(C)C(N)C(=O)O; ξP = O=C(O)C1CCCN1
Legend:
Assay in all cases: Growth inhibition test (MTT) for cytotoxic properties on tumour cell lines
Assay type in all cases: cell-based
[1] = test system: B16F10 mouse melanoma cell line; conditions: B16F10 cells, growth checked after day 6, read-out: IC50 of the cytotoxic action on tumour cell lines, B16F10
Description: (§1) A: Growth Inhibition Test for the Determination of the Cytotoxic Properties on Various Tumour Cell Lines
(§2) The human large intestine cell lines SW 480 and HT29 (ATCC No. CCL 228 and HTB38 and the mouse melanoma cell line B16F10 (CRL 6475) were grown to confluence in Roux dishes in RPMI 1640 medium with addition of 10% FCS. They were then trypsinized and taken up in RPMI plus 10% FCS to a cell count of 50,000 cells or, for B16F10, 20,000 cells per ml. 100 μl of cell suspension/well were added to a 96 microwell plate and incubated at 37° C. for 1 day in a CO2 incubator. A further 100 μl of RPMI medium and 1 μl of DMSO were then added with the test substances. The growth was checked after day 6. For this, 25 μl of MTT solution (3-(4,5-dimethylthiazol-2-yl)-2,5-diphenyltetrazolium bromide) was added to each well at a starting concentration of 5 mg/ml of H2O. The plate was incubated at 37° C. for 5 hours in a CO2 incubator. The medium was then aspirated and 100 μl of 1-propanol/well were added. After shaking with 100 μl of H2O for 30 min, the extinction was measured at 595 nm using a Multiplate Reader (BIO-RAD 3550-UV).
(§3) The cytostatic action is indicated in Table 1 as an IC50 value, in each case for the individual cell lines.

[2] = test system: SW 480 human large intestine cell line; conditions: SW480 cells, growth checked after day 6, read-out: IC50 of the cytotoxic action on tumour cell lines, SW480
Description: as §1, §2, §3

[3] = test system: HT29 human large intestine cell line; conditions: HT29 cells, growth checked after day 6, read-out: IC50 of the cytotoxic action on tumour cell lines, HT29
Description: as §1, §2, §3

SMILES | pIC50 [1] | pIC50 [2] | pIC50 [3]
CC[C@@]1(OC(=O)[C@H](NC(=O)[C@@H](Cc2c[nH]cn2)NC(=O)CNC(=O)[C@H](CC(C)C)NC(=O)[C@H]2CCCN2C(=S)Nc2ccc(OC3O[C@H](C)[C@H](O)[C@H](OC)[C@@H]3O)cc2)C(C)C)C(=O)OCc2c1cc1n(c2=O)Cc2cc3ccccc3nc2-1 (stereo partly drawn) [Example 1] | 6.82 | 6.82 | 7.15
CC[C@@]1(OC(=O)[C@H](NC(=O)[C@@H](CSC)NC(=O)[C@@H](CC(C)C)NC(=O)CNC(=O)[C@H](CC(C)C)NC(=O)[C@H]2CCCN2C(=S)Nc2ccc(OC3O[C@H](C)[C@H](O)[C@H](OC)[C@@H]3O)cc2)C(C)C)C(=O)OCc2c1cc1n(c2=O)Cc2cc3ccccc3nc2-1 (stereo partly drawn) [Example 8] (X1-[dP]LG[dL][dC](Me)[dV]-X2) | 6.82 | 7.30 | 7.40
CC[C@]1(OC(=O)[C@H](NC(=O)[C@@H](CCCCN)NC(=O)[C@@H](CC(C)C)NC(=O)CNC(=O)[C@H](CC(C)C)NC(=O)[C@H]2CCCN2C(=S)Nc2ccc(O[C@@H]3O[C@H](C)[C@H](O)[C@H](OC)[C@@H]3O)cc2)C(C)C)C(=O)OCc2c1cc1n(c2=O)Cc2cc3ccccc3nc2-1 [Example 10] (X6-[dP]LG[dL][dK][dV]-{Camptothecin(20R,20-O)}) | 6.82 | 7.10 | 7.15
CC[C@@]1(OC(=O)[C@H](NC(=O)[C@@H](Cc2c[nH]cn2)NC(=O)[C@@H](CC(C)C)NC(=O)CNC(=O)[C@H](CC(C)C)NC(=O)[C@H]2CCCN2C(=S)Nc2ccc(OC3O[C@H](C)[C@H](O)[C@H](OC)[C@@H]3O)cc2)C(C)C)C(=O)OCc2c1cc1n(c2=O)Cc2cc3ccccc3nc2-1 (stereo partly drawn) [Example 11] (X1-[dP]LG[dL][dH][dV]-X2) | 6.52 | 6.70 | 7.10
CC[C@@]1(OC(=O)[C@H](NC(=O)[C@@H](Cc2c[nH]cn2)NC(=O)[C@@H](CC(C)C)NC(=O)CNC(=O)[C@H](CC(C)C)NC(=O)[C@H]2CCCN2C(=S)Nc2ccc(OC3O[C@H](C)[C@H](O)[C@H](OC)[C@@H]3O)cc2)C(C)C)C(=O)OCc2c1cc1n(c2=O)Cc2cc3ccccc3nc2-1 (stereo partly drawn) [Example 13] (X1-[dP]LG[dL][dH][dV]-X2) | 6.70 | 7.00 | 7.15
CC[C@@]1(OC(=O)[C@@H](NC(=O)[C@@H](C)NC(=O)[C@H](CC(C)C)NC(=O)CNC(=O)[C@H](CC(C)C)NC(=O)[C@@H]2CCCN2C(=S)Nc2ccc(O[C@H]3O[C@@H](C)[C@@H](O)[C@@H](OC)[C@@H]3O)cc2)C(C)C)C(=O)OCc2c1cc1n(c2=O)Cc2cc3ccccc3nc2-1 [Example 14] (X4-PLGL[dA]V-X2) | 5.70 | 6.15 | 6.05
CC[C@@]1(OC(=O)[C@@H](NC(=O)[C@@H](NC(=O)[C@H](CC(C)C)NC(=O)CNC(=O)[C@H](CC(C)C)NC(=O)[C@@H]2CCCN2C(=S)Nc2ccc(O[C@H]3O[C@@H](C)[C@@H](O)[C@@H](OC)[C@@H]3O)cc2)C(C)C)C(C)C)C(=O)OCc2c1cc1n(c2=O)Cc2cc3ccccc3nc2-1 [Example 15] (X4-PLGLVV-X2) | 6.40 | 7.10 | 7.00
CC[C@@]1(OC(=O)[C@@H](NC(=O)[C@H](Cc2ccccc2)NC(=O)[C@H](CC(C)C)NC(=O)CNC(=O)[C@H](CC(C)C)NC(=O)[C@@H]2CCCN2C(=S)Nc2ccc(O[C@H]3O[C@@H](C)[C@@H](O)[C@@H](OC)[C@@H]3O)cc2)C(C)C)C(=O)OCc2c1cc1n(c2=O)Cc2cc3ccccc3nc2-1 [Example 16] (X4-PLGLFV-X2) | 6.60 | 7.22 | 7.10
CC[C@@]1(OC(=O)[C@@H](NC(=O)[C@H](CO)NC(=O)[C@H](CC(C)C)NC(=O)CNC(=O)[C@H](CC(C)C)NC(=O)[C@@H]2CCCN2C(=S)Nc2ccc(O[C@H]3O[C@@H](C)[C@@H](O)[C@@H](OC)[C@@H]3O)cc2)C(C)C)C(=O)OCc2c1cc1n(c2=O)Cc2cc3ccccc3nc2-1 [Example 17] (X4-PLGLSV-X2) | 6.70 | 7.40 | 7.15
CCC(C)[C@H](NC(=O)[C@H](CC(C)C)NC(=O)CNC(=O)[C@H](CC(C)C)NC(=O)[C@@H]1CCCN1C(=S)Nc1ccc(O[C@H]2O[C@@H](C)[C@@H](O)[C@@H](OC)[C@@H]2O)cc1)C(=O)N[C@H](C(=O)O[C@]1(CC)C(=O)OCc2c1cc1n(c2=O)Cc2cc3ccccc3nc2-1)C(C)C (stereo partly drawn) [Example 18] (X4-PLGL[Ile(3ξ)]V-X2) | 6.22 | 7.00 | 6.70
CC[C@@]1(OC(=O)[C@@H](NC(=O)[C@H](CCC(=O)O)NC(=O)[C@H](CC(C)C)NC(=O)CNC(=O)[C@H](CC(C)C)NC(=O)[C@@H]2CCCN2C(=S)Nc2ccc(O[C@H]3O[C@@H](C)[C@@H](O)[C@@H](OC)[C@@H]3O)cc2)C(C)C)C(=O)OCc2c1cc1n(c2=O)Cc2cc3ccccc3nc2-1 [Example 19] (X4-PLGLEV-X2) | 5.82 | 6.70 | 6.40
CC[C@@]1(OC(=O)[C@@H](NC(=O)CNC(=O)[C@H](CC(C)C)NC(=O)CNC(=O)[C@H](CC(C)C)NC(=O)[C@@H]2CCCN2C(=S)Nc2ccc(O[C@H]3O[C@@H](C)[C@@H](O)[C@@H](OC)[C@@H]3O)cc2)C(C)C)C(=O)OCc2c1cc1n(c2=O)Cc2cc3ccccc3nc2-1 [Example 20] (X4-PLGLGV-X2) | 6.10 | 6.92 | 6.60
CC[C@@]1(OC(=O)[C@@H](NC(=O)[C@@H]2CCCN2C(=O)[C@H](CC(C)C)NC(=O)CNC(=O)[C@H](CC(C)C)NC(=O)[C@@H]2CCCN2C(=S)Nc2ccc(O[C@H]3O[C@@H](C)[C@@H](O)[C@@H](OC)[C@@H]3O)cc2)C(C)C)C(=O)OCc2c1cc1n(c2=O)Cc2cc3ccccc3nc2-1 [Example 21] (X4-PLGLPV-X2) | 6.10 | 7.00 | 6.60
CC[C@@]1(OC(=O)[C@@H](NC(=O)[C@H](C)NC(=O)[C@H](CC(C)C)NC(=O)CNC(=O)[C@H](CC(C)C)NC(=O)[C@@H]2CCCN2C(=S)Nc2ccc(O[C@H]3O[C@@H](C)[C@@H](O)[C@@H](OC)[C@@H]3O)cc2)C(C)C)C(=O)OCc2c1cc1n(c2=O)Cc2cc3ccccc3nc2-1 [Example 22] (X4-PLGLAV-X2) | 6.60 | 7.40 | 7.15
CC[C@@]1(OC(=O)[C@H](NC(=O)[C@@H](CC(N)=O)NC(=O)[C@@H](CC(C)C)NC(=O)CNC(=O)[C@H](CC(C)C)NC(=O)[C@H]2CCCN2C(=S)Nc2ccc(OC3O[C@H](C)[C@H](O)[C@H](OCC(=O)O)[C@@H]3O)cc2)C(C)C)C(=O)OCc2c1cc1n(c2=O)Cc2cc3ccccc3nc2-1 (stereo partly drawn) [Example 23] (X8-[dP]LG[dL][dN][dV]-X2) | 6.10 | 6.70 | 6.92
CC[C@@]1(OC(=O)[C@H](NC(=O)[C@@H](CC(N)=O)NC(=O)[C@@H](CC(C)C)NC(=O)CNC(=O)[C@H](CC(C)C)NC(=O)[C@H]2CCCN2C(=S)Nc2ccc(OC3O[C@H](CO)[C@H](O)[C@H](O)[C@@H]3O)cc2)C(C)C)C(=O)OCc2c1cc1n(c2=O)Cc2cc3ccccc3nc2-1 (stereo partly drawn) [Example 24] (X7-[dP]LG[dL][dN][dV]-X2) | 6.30 | 6.70 | 7.00
CC[C@]1(OC(=O)[C@H](NC(=O)[C@@H](CC(N)=O)NC(=O)[C@@H](CC(C)C)NC(=O)CNC(=O)[C@H](CC(C)C)NC(=O)[C@H]2CCCN2C(=S)Nc2ccc(O[C@@H]3O[C@H](C)[C@H](O)[C@H](OCCO)[C@@H]3O)cc2)C(C)C)C(=O)OCc2c1cc1n(c2=O)Cc2cc3ccccc3nc2-1 [Example 25] (X9-[dP]LG[dL][dN][dV]-{Camptothecin(20R,20-O)}) | 6.10 | 6.74 | 6.82
CC[C@]1(OC(=O)C(NC(=O)[C@@H](CC(N)=O)NC(=O)[C@@H](CC(C)C)NC(=O)CNC(=O)[C@H](CC(C)C)NC(=O)C2CCCN2C(=S)Nc2ccc(O[C@@H]3O[C@H](C)[C@H](O)[C@H](OCC(N)=O)[C@@H]3O)cc2)C(C)C)C(=O)OCc2c1cc1n(c2=O)Cc2cc3ccccc3nc2-1 (stereo partly drawn) [Example 26] (X5-[ξP]LG[dL][dN][ξV]-{Camptothecin(20R,20-O)}) | 6.35 | 6.82 | 7.05
CC[C@]1(OC(=O)[C@H](NC(=O)[C@@H](CC(N)=O)NC(=O)[C@@H](CC(C)C)NC(=O)CNC(=O)[C@H](CC(C)C)NC(=O)C2CCCN2C(=O)CNC(=S)Nc2ccc(O[C@@H]3O[C@H](C)[C@H](O)[C@H](OC)[C@@H]3O)cc2)C(C)C)C(=O)OCc2c1cc1n(c2=O)Cc2cc3ccccc3nc2-1 (stereo partly drawn) [Example 27] (X6-G[ξP]LG[dL][dN][dV]-{Camptothecin(20R,20-O)}) | 7.30 | 7.60 | 7.82

— US20020173452A1, “Cytostatic-glycoconjugates having specifically cleavable linking units” (priority 2000, published 2002)
